Data set [1] deals with Lawn seedlings (Western lawn: bent grass). Nature of the data set: Plant growth promoting effect, hydroponic culture of lawn seedlings. Type of data set: in vivo. Conditions: hydroponics in HYPONEX diluted 2,000-fold, inosine concentration 20 ppm, after a month of culturing. How it is done:
Plant Growth Promoting Effect
Lawn seedlings (Western lawn: bent grass) were raised and divided into two groups each containing 30 plants. Hydroponics were performed as follows. Both the control group and the inosine. L-arginine salt group were cultured using HYPONEX, diluted by a facter of 2,000. The HYPONEX diluted by a facter of 2000 alone was used as culture fluid for the control group. Inosine- L-arginine salt was added to the culture fluid to an inosine concentration of 20 ppm.
After a month of culturing, the average plant length, the average root length, the number of leaves for 30 plants, the number of branching of a stem for 30 plants, the weight for 30 plants, and the dried weight for 30 plants were measured for each group. From the Table, the effectiveness of inosine. L-arginine salt was confirmed.

The nature of data set [2]: Test of velocity of dissolution. Type of data set: physicochemical. Conditions: 1.2 mmol added to 10 mL of water with stirring at room temperature. Here is the method:
Test of Velocity of Dissolution
Each of the following was added to separate containers containing 10 mL of water with stirring at room temperature: (a) a mixture (0.53 g) of 1.2 mmol of inosine and 1.2 mmol of L-arginine, (b) 1.2 mmol (0.53 g) of the inosine. L-arginine salt obtained in Example 1, and (3) 1.2 mmol (0.32 g) of inosine. The time period for complete dissolution was measured for each. The equimolar mixture of inosine and L-arginine required 50 seconds for complete dissolution. On the other hand, inosine. […] L-arginine salt were confirmed.

For data set [3] the following is noted: at normal temperatures; cited from earlier work.

On to `N=C(N)NCCC[C@H](N)C(=O)O.OC[C@H]1O[C@@H](n2cnc3c(O)ncnc32)[C@H](O)[C@@H]1O` [inosine · L-arginine salt, inosine. L-arginine salt], for which, in data set [1], the “Dried weight per 30 plants” value is on record as 0.0434 g, the “Number of branching per 30 plants” value was 37, the “Number of leaves per 30 plants” value is on record as 102 and the “Weight per 30 plants” value is recorded as 0.13 g. In data set [1] (30 plants), the Average plant length came to 6.0 cm and the Average root length is reported as 5.0 cm. Also, in data set [2], the “time period for complete dissolution” value is recorded as “dissolved immediately”.

Regarding `OC[C@H]1O[C@@H](n2cnc3c(O)ncnc32)[C@H](O)[C@@H]1O` [inosine], in data set [3], the solubility in water entry is listed as “about 1.6%”. Further, the “time period for complete dissolution” value in data set [2] was “did not completely dissolve”.

The record behind these values is patent publication US20040192553A1, “Inosine L-Arginine salt and uses thereof” (priority 2001, published 2004).
